Assay results as given in patent publication US4742049A, “Semisynthetic erythromycin antibiotics” (Abbott Laboratories, priority 1986, dated 1988).
≈ marks a conversion by molar mass, not a printed value. Where “and” joins values, the source holds several entries; their conditions need not be identical. Identical values can stand only once. Like-named read-outs stand apart in the source and are kept apart here.

Experiments:
[1] = tested on: Staph. aureus; experiment: antimicrobial spectrum, agar dilution MIC; assay type: cell-based; conditions: Staphylococcus aureus, BHI agar, 20-24 hours
Procedure: (§1) Twelve petri dishes containing successive aqueous dilutions of the test compound mixed with 10 ml of sterilized Brain Heart Infusion agar (Difco 0418-01-5) are prepared. Each plate is inoculated with 1:100 (or 1:10 for slow-growing strains, primarily Micrococcus and Streptococcus) dilutions of up to 32 different microorganisms, using a Steers replicator block. The inoculated plates are incubated at 35°-37° C. for 20-24 hours. In addition, a control plate, using BHI agar containing no test compound, is prepared and incubated at the beginning and end of each test.
(§2) An additional plate containing a compound having known susceptibility patterns for the organisms being tested and belonging to the same antibiotic class as the test compound is also prepared and incubated as a further control, as well as to provide test-to-test comparability.
(§3) After incubation, each disk is read. The MIC is defined as the lowest concentration of drug yielding no growth, a slight haze, or sparsely isolated colonies on the inoculum spot as compared to the growth control.

[2] = tested on: Strep. pneumoniae; experiment: antimicrobial spectrum, agar dilution MIC; assay type: cell-based; conditions: Streptococcus pneumoniae, BHI agar, 20-24 hours
Procedure: as §1, §2, §3

[3] = tested on: Strep. faecalis; experiment: antimicrobial spectrum, agar dilution MIC; assay type: cell-based; conditions: Enterococcus faecalis, BHI agar, 20-24 hours
Procedure: as §1, §2, §3

[4] = tested on: Strep. agalactiae; experiment: antimicrobial spectrum, agar dilution MIC; assay type: cell-based; conditions: Streptococcus agalactiae; strain CMX 633; BHI agar, 20-24 hours; read-out: MIC
Procedure: as §1, §2, §3

[5] = tested on: Pseudomonas aeruginosa; experiment: antimicrobial spectrum, agar dilution MIC; assay type: cell-based; conditions: BHI agar, 20-24 hours
Procedure: as §1, §2, §3

[6] = tested on: Strep. faecium; experiment: antimicrobial spectrum, agar dilution MIC; assay type: cell-based; conditions: Enterococcus faecium, BHI agar, 20-24 hours
Procedure: as §1, §2, §3

[7] = tested on: Strep. bovis; experiment: antimicrobial spectrum, agar dilution MIC; assay type: cell-based; conditions: Streptococcus equinus, strain A5169; BHI agar, 20-24 hours; read-out: MIC
Procedure: as §1, §2, §3

[8] = tested on: Staph. epidermidis; experiment: antimicrobial spectrum, agar dilution MIC; assay type: cell-based; conditions: Staphylococcus epidermidis, BHI agar, 20-24 hours
Procedure: as §1, §2, §3

[9] = tested on: Providencia stuartii; experiment: antimicrobial spectrum, agar dilution MIC; assay type: cell-based; conditions: strain CMX 640, BHI agar, 20-24 hours
Procedure: as §1, §2, §3

[10] = tested on: Strep. pyogenes; experiment: antimicrobial spectrum, agar dilution MIC; assay type: cell-based; conditions: BHI agar, 20-24 hours
Procedure: as §1, §2, §3

[11] = tested on: Micrococcus luteus; experiment: antimicrobial spectrum, agar dilution MIC; assay type: cell-based; conditions: strain 4698, BHI agar, 20-24 hours
[12] = tested on: Staph. saprophyticus; experiment: microbe, parasite or virus in culture; conditions: Staphylococcus saprophyticus, ATCC15305
Procedure: as §1, §2, §3

[13] = tested on: Klebsiella pneumoniae; experiment: antimicrobial spectrum, agar dilution MIC; assay type: cell-based; conditions: strain 8045, BHI agar, 20-24 hours
[14] = tested on: Staph. aureus NCTC 10649; experiment: acute mouse protection test; conditions: for ED50: Staphylococcus aureus, NCTC10649, in Mus musculus, 168 h, dosed 1 and 5 hours post-infection, observed 7 days; for # Died: ten mice
Procedure: The acute mouse protection test is conducted on ten mice with each of three levels of drug.
The acute mouse protection test is conducted on female, Swiss albino mice, 18-20 grams in weight. The mice are injected intraperitoneally with an 18-hour culture of the indicated test organism diluted sufficiently to provide the desired LD50 value. To check the potency of the inoculum, a titration of the indicated test organism is carried out in control animals. […] The ED50 values are calculated using the mortality data collected.

[15] = tested on: Ent. aerogenes; experiment: antimicrobial spectrum, agar dilution MIC; assay type: cell-based
[16] = tested on: Pseudomonas cepacia; experiment: antimicrobial spectrum, agar dilution MIC; assay type: cell-based; conditions: strain 2961, BHI agar, 20-24 hours
Procedure: Erythromycin A was used for this purpose.
After incubation, each disk is read.

CC[C@H]1OC(=O)[C@H](C)[C@@H](O[C@H]2C[C@@](C)(OC)[C@@H](O)[C@H](C)O2)[C@H](C)[C@@H](O[C@@H]2O[C@H](C)C[C@H](N(C)C)[C@H]2O)[C@](C)(O)C[C@@H](C)C(=O)[C@H](C)[C@@H](O)[C@]1(C)O [Erythromycin A]
MIC ([1]; ATCC6538P, strain ATCC 6538P, read-out: MIC): 0.12 µg/mL (≈ 0.164 µM)
MIC ([1]; ATCC25923, strain ATCC 25923, read-out: MIC): 0.06 µg/mL (≈ 0.0818 µM)
MIC ([1]; NCTC10649, strain NCTC 10649, read-out: MIC): 0.06 µg/mL (≈ 0.0818 µM)
MIC ([1]; strain 45 RAR 2): 0.2 µg/mL (≈ 0.273 µM)
MIC ([1]; strain 642A, read-out: MIC): 0.12 µg/mL (≈ 0.164 µM)
MIC ([1]; strain A5177, read-out: MIC): 0.78 µg/mL (≈ 1.06 µM)
MIC ([1]; strain CMX 686B, read-out: MIC): 0.12 µg/mL (≈ 0.164 µM)
MIC ([1]; strain CMX 705, read-out: MIC): 0.06 µg/mL (≈ 0.0818 µM)
MIC ([1]; strain CMX 730A, read-out: MIC): 0.06 µg/mL (≈ 0.0818 µM)
MIC ([1]; strain CMX 739A, read-out: MIC): 0.06 µg/mL (≈ 0.0818 µM)
MIC ([1]; strain GYR 1150, read-out: MIC): 0.06 µg/mL (≈ 0.0818 µM)
MIC ([1]; strain GYR 1162, read-out: MIC): 0.06 µg/mL (≈ 0.0818 µM)
MIC ([2]; strain 78-008107): 32 µg/mL (≈ 43.6 µM)
MIC ([2]; strain CMX 635, read-out: MIC): 0.015 µg/mL (≈ 0.0204 µM)
MIC ([2]; strain CMX 698, read-out: MIC): 0.008 µg/mL (≈ 0.0109 µM)
MIC ([3]; strain CMX 663F): 2 µg/mL (≈ 2.73 µM)
MIC ([3]; strain CMX 729G): 0.5 µg/mL (≈ 0.681 µM)
MIC ([3]; strain CMX 736F): 0.5 µg/mL (≈ 0.681 µM)
MIC ([3]; strain GYR 1164): 0.5 µg/mL (≈ 0.681 µM)
MIC ([3]; strain GYR 1166): 0.5 µg/mL (≈ 0.681 µM)
MIC ([3]; strain GYR 1167): 4 µg/mL (≈ 5.45 µM)
MIC [4]: 0.015 µg/mL (≈ 0.0204 µM)
MIC ([5]; Pseudomonas aeruginosa, strain 5007): 200 µg/mL (≈ 273 µM)
MIC ([5]; Pseudomonas aeruginosa, strain BMH10): 100 µg/mL (≈ 136 µM)
MIC ([5]; Pseudomonas aeruginosa, strain K799/61): 1.56 µg/mL (≈ 2.13 µM)
MIC ([5]; Pseudomonas aeruginosa, strain K799/WT): 200 µg/mL (≈ 273 µM)
MIC ([5]; strain 5007): > 100 µg/mL
MIC ([5]; strain K799/WT): > 100 µg/mL and 100 µg/mL
MIC ([6]; ATCC8043, strain ATCC 8043): 0.1 µg/mL (≈ 0.136 µM)
MIC ([6]; ATCC8043, strain ATCC 8043, read-out: MIC): 0.06 µg/mL (≈ 0.0818 µM)
MIC [7]: 0.01 µg/mL (≈ 0.0136 µM)
MIC ([8]; strain 3519, read-out: MIC): 0.21 µg/mL (≈ 0.286 µM)
MIC ([8]; strain 3519 RARI): 0.2 µg/mL (≈ 0.273 µM)
MIC ([8]; strain CMX 728, read-out: MIC): 0.06 µg/mL (≈ 0.0818 µM)
MIC ([8]; strain GYR 1151, read-out: MIC): 0.12 µg/mL (≈ 0.164 µM)
MIC [9]: > 100 µg/mL
MIC ([9]; read-out: MIC): > 200 µg/mL
MIC ([10]; Streptococcus pyogenes, strain 930, read-out: MIC): > 200 µg/mL
MIC ([10]; Streptococcus pyogenes, strain C203, read-out: MIC): 0.002 µg/mL (≈ 0.00273 µM)
MIC ([10]; Streptococcus pyogenes, strain EES61, read-out: MIC): 0.06 µg/mL (≈ 0.0818 µM)
MIC ([10]; Streptococcus pyogenes, strain M79061-98): 1 µg/mL (≈ 1.36 µM)
MIC ([10]; Streptococcus pyogenes, strain M79061-139, read-out: MIC): 0.015 µg/mL (≈ 0.0204 µM)
MIC ([10]; Streptococcus pyogenes, strain M79061-140, read-out: MIC): 0.008 µg/mL (≈ 0.0109 µM)
MIC ([10]; strain 930): > 100 µg/mL
MIC [11]: 0.1 µg/mL (≈ 0.136 µM)
MIC [12]: 0.03 µg/mL (≈ 0.0409 µM)
MIC [13]: 50 µg/mL (≈ 68.1 µM)
ED50 ([14]; po, dosage medium Carboxymethylcellulose): 48.8 mg/kg
ED50 ([14]; po, dosage medium PBS): 75.7 mg/kg
ED50 ([14]; sc, subcutaneous, dosage medium Injectable solution): 10.9 mg/kg
# Died ([14]; oral, Carboxymethylcellulose, 15.6 mg/kg): 8
# Died ([14]; oral, Carboxymethylcellulose, 37.5 mg/kg): 5
# Died ([14]; oral, Carboxymethylcellulose, 250.0 mg/kg): 0
# Died ([14]; oral, PBS, 15.6 mg/kg): 10
# Died ([14]; oral, PBS, 37.5 mg/kg): 4
# Died ([14]; oral, PBS, 250.0 mg/kg): 0
# Died ([14]; subcutaneous, Injectable solution, 2.5 mg/kg): 10
# Died ([14]; subcutaneous, Injectable solution, 10.0 mg/kg): 6
# Died ([14]; subcutaneous, Injectable solution, 40.0 mg/kg): 0
MIC ([15]; Klebsiella aerogenes, ATCC10348): 100 µg/mL (≈ 136 µM)
MIC ([15]; Klebsiella aerogenes, ATCC13048, strain ATCC 13048, BHI agar, 20-24 hours, read-out: MIC): 50 µg/mL (≈ 68.1 µM)
MIC ([15]; strain ATCC 10348, BHI agar, 20-24 hours): 50 µg/mL (≈ 68.1 µM)
MIC ([16]; Burkholderia cepacia, read-out: MIC): 200 µg/mL (≈ 273 µM)
MIC [16]: > 100 µg/mL
